Source: paper PMC6979384, “Characterization of the plant homeodomain (PHD) reader family for their histone tail interactions” (Epigenetics & Chromatin, 2020)

Assays:
Experiment in all cases: Histone peptide microarray
Format in all cases: binding, human
Details in all cases: arrays performed twice, n of 4
TAF3 = test system: TAF3
Procedure, shortened: (§1)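 Binding of recombinant GST-fused PHD readers (0.5 μM) is detected on an array of 293 histone peptides, modified singly or in combination. An optimized array protocol is followed, and each intensity is the average of quadruplicate measurements with standard deviation.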

RAG2 = test system: RAG2
Procedure, shortened: as §1

PHF2 = test system: PHF2
Procedure, shortened: as §1

ING2 = test system: ING2
Procedure, shortened: as §1

DIDO1 = test system: DIDO1
Procedure, shortened: as §1

SP140L = test system: SP140L
Procedure, shortened: as §1

CHD5 (PCC) = test system: CHD5 (PCC)
Procedure, shortened: as §1

PHF23 = test system: PHF23
Procedure, shortened: as §1

KDM5A (3) = test system: KDM5A (3)
Procedure, shortened: as §1

BPTF (PB) = test system: BPTF (PB)
Procedure, shortened: as §1

ING1 = test system: ING1
Procedure, shortened: as §1

KDM4C (TTP) = test system: KDM4C (TTP)
Procedure, shortened: as §1

KDM5B (1) = test system: KDM5B (1)
Procedure, shortened: as §1

PHF21A = test system: PHF21A
Procedure, shortened: as §1

KDM7A = test system: KDM7A
Procedure, shortened: as §1

ING3 = test system: ING3
Procedure, shortened: as §1

ING5 = test system: ING5
Procedure, shortened: as §1

CHD5 (PPCC) = test system: CHD5 (PPCC)
Procedure, shortened: as §1

ING4 = test system: ING4
Procedure, shortened: as §1

PHRF1 (RP) = test system: PHRF1 (RP)
Procedure, shortened: as §1

PHF8 = test system: PHF8
Procedure, shortened: as §1

KDM5A (1) = test system: KDM5A (1)
Procedure, shortened: as §1

MLL5 = test system: MLL5
Procedure, shortened: as §1

CHD4 (PPCC) = test system: CHD4 (PPCC)
Procedure, shortened: as §1

TRIM66 (PB) = test system: TRIM66 (PB)
Procedure, shortened: as §1

MORC3 (CW) = test system: MORC3 (CW)
Procedure, shortened: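 A peptide microarray holding 293 synthetic histone peptides with individual or combinatorial modifications was probed with each GST-PHD protein at 0.5 μM. Values represent mean intensity (±SD) from four replicates.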

DPF2 (PPC2W2) = test system: DPF2 (PPC2W2)
Procedure, shortened: as §1

AIRE (PP) = test system: AIRE (PP)
Procedure, shortened: as §1

BAZ2B = test system: BAZ2B
Procedure, shortened: as §1

KDM5B (3) = test system: KDM5B (3)
Procedure, shortened: as §1

PHF13 = test system: PHF13
Procedure, shortened: as §1

H4S1p + R3me2s: H4 1-23
Array Heatmap signal, TAF3 (TAF3; GST-tagged TAF3, histone peptide array): 0.439
Array Heatmap signal, RAG2 (RAG2; GST-tagged RAG2, histone peptide array): 0.4186
Array Heatmap signal, PHF2 (PHF2; GST-tagged PHF2, histone peptide array): 0.514
Array Heatmap signal, ING2 (ING2; GST-tagged ING2, histone peptide array): 0.6427
Array Heatmap signal, DIDO1 (DIDO1; GST-tagged DIDO1, histone peptide array): 0.7409
Array Heatmap signal, SP140L (SP140L; GST-tagged SP140L, histone peptide array): 0.3935
Array Heatmap signal, CHD5 (PCC) (CHD5 (PCC); GST-tagged CHD5 (PCC = PHD + Dual Chromodomain), histone peptide array): 0.9435
Array Heatmap signal, PHF23 (PHF23; GST-tagged PHF23, histone peptide array): 0.5739
Array Heatmap signal, KDM5A (3) (KDM5A (3); GST-tagged KDM5A (3), histone peptide array): 0.5274
Array Heatmap signal, BPTF (PB) (BPTF (PB); GST-tagged BPTF (PB = PHD + Bromodomain), histone peptide array): 0.4125
Array Heatmap signal, ING1 (ING1; GST-tagged ING1, histone peptide array): 0.5472
Array Heatmap signal, KDM4C (TTP) (KDM4C (TTP); GST-tagged KDM4C (TTP = Tandem Tudor domain + PHD), histone peptide array): 0.5709
Array Heatmap signal, KDM5B (1) (KDM5B (1); GST-tagged KDM5B (1), histone peptide array): 0.7342
Array Heatmap signal, PHF21A (PHF21A; GST-tagged PHF21A, histone peptide array): 0.5145
Array Heatmap signal, KDM7A (KDM7A; GST-tagged KDM7A, histone peptide array): 0.5358
Array Heatmap signal, ING3 (ING3; GST-tagged ING3, histone peptide array): 0.5221
Array Heatmap signal, ING5 (ING5; GST-tagged ING5, histone peptide array): 0.4164
Array Heatmap signal, CHD5 (PPCC) (CHD5 (PPCC); GST-tagged CHD5 (PPCC = Dual PHD + Dual Chromodomain), histone peptide array): 0.6121
Array Heatmap signal, ING4 (ING4; GST-tagged ING4, histone peptide array): 0.5288
Array Heatmap signal, PHRF1 (RP) (PHRF1 (RP); GST-tagged PHRF1 (RP), histone peptide array): 0.4781
Array Heatmap signal, PHF8 (PHF8; GST-tagged PHF8, histone peptide array): 0.4081
Array Heatmap signal, KDM5A (1) (KDM5A (1); GST-tagged KDM5A (1), histone peptide array): 0.508
Array Heatmap signal, MLL5 (MLL5; GST-tagged MLL5, histone peptide array): 0.6789
Array Heatmap signal, CHD4 (PPCC) (CHD4 (PPCC); GST-tagged CHD4 (PPCC = Dual PHD + Dual Chromodomain), histone peptide array): 0.6243
Array Heatmap signal, TRIM66 (PB) (TRIM66 (PB); GST-tagged TRIM66 (PB = PHD + Bromodomain), histone peptide array): 0.8775
Array Heatmap signal, MORC3 (CW) (MORC3 (CW); GST-tagged MORC3 (CW = CW-type Zn-finger), histone peptide array): 0.5092
Array Heatmap signal, DPF2 (PPC2W2) (DPF2 (PPC2W2); GST-tagged DPF2 (PPC2W2 = Dual PHD + C2W2-type Zn-finger), histone peptide array): 0.7264
Array Heatmap signal, AIRE (PP) (AIRE (PP); GST-tagged AIRE (PP), histone peptide array): 0.5797
Array Heatmap signal, BAZ2B (BAZ2B; GST-tagged BAZ2B, histone peptide array): 0.546
Array Heatmap signal, KDM5B (3) (KDM5B (3); GST-tagged KDM5B (3), histone peptide array): 0.6247
Array Heatmap signal, PHF13 (PHF13; GST-tagged PHF13, histone peptide array): 0.6986

Myc-Tag: 1-10 (ILKKATAYIL; Myc epitope tag; UniProt P01106 410-419, looked up, fragment)
Array Heatmap value (peptide array binding signal) (TAF3; TAF3, GST-tagged): 0.2522
Array Heatmap value (peptide array binding signal) (RAG2; RAG2, GST-tagged): 0.2496
Array Heatmap value (peptide array binding signal) (PHF2; PHF2, GST-tagged): 0.5897
Array Heatmap value (peptide array binding signal) (ING2; ING2, GST-tagged): 0.5931
Array Heatmap value (peptide array binding signal) (DIDO1; DIDO1, GST-tagged): 0.7478
Array Heatmap value (peptide array binding signal) (SP140L; SP140L, GST-tagged): 0.3664
Array Heatmap value (peptide array binding signal) (CHD5 (PCC); CHD5 (PCC), GST-tagged): 0.7878
Array Heatmap value (peptide array binding signal) (PHF23; PHF23, GST-tagged): 0.5279
Array Heatmap value (peptide array binding signal) (KDM5A (3); KDM5A (3), GST-tagged): 0.493
Array Heatmap value (peptide array binding signal) (BPTF (PB); BPTF (PB), GST-tagged): 0.3544
Array Heatmap value (peptide array binding signal) (ING1; ING1, GST-tagged): 0.569
Array Heatmap value (peptide array binding signal) (KDM4C (TTP); KDM4C (TTP), GST-tagged): 0.4677
Array Heatmap value (peptide array binding signal) (KDM5B (1); KDM5B (1), GST-tagged): 0.6488
Array Heatmap value (peptide array binding signal) (PHF21A; PHF21A, GST-tagged): 0.4264
Array Heatmap value (peptide array binding signal) (KDM7A; KDM7A, GST-tagged): 0.3296
Array Heatmap value (peptide array binding signal) (ING3; ING3, GST-tagged): 0.5082
Array Heatmap value (peptide array binding signal) (ING5; ING5, GST-tagged): 0.3459
Array Heatmap value (peptide array binding signal) (CHD5 (PPCC); CHD5 (PPCC), GST-tagged): 0.538
Array Heatmap value (peptide array binding signal) (ING4; ING4, GST-tagged): 0.4476
Array Heatmap value (peptide array binding signal) (PHRF1 (RP); PHRF1 (RP), GST-tagged): 0.4883
Array Heatmap value (peptide array binding signal) (PHF8; PHF8, GST-tagged): 0.3567
Array Heatmap value (peptide array binding signal) (KDM5A (1); KDM5A (1), GST-tagged): 0.4279
Array Heatmap value (peptide array binding signal) (MLL5; MLL5, GST-tagged): 0.5446
Array Heatmap value (peptide array binding signal) (CHD4 (PPCC); CHD4 (PPCC), GST-tagged): 0.5842
Array Heatmap value (peptide array binding signal) (TRIM66 (PB); TRIM66 (PB), GST-tagged): 0.6061
Array Heatmap value (peptide array binding signal) (MORC3 (CW); MORC3 (CW), GST-tagged): 0.3567
Array Heatmap value (peptide array binding signal) (DPF2 (PPC2W2); DPF2 (PPC2W2), GST-tagged): 0.6957
Array Heatmap value (peptide array binding signal) (AIRE (PP); AIRE (PP), GST-tagged): 0.3997
Array Heatmap value (peptide array binding signal) (BAZ2B; BAZ2B, GST-tagged): 0.4426
Array Heatmap value (peptide array binding signal) (KDM5B (3); KDM5B (3), GST-tagged): 0.4322
Array Heatmap value (peptide array binding signal) (PHF13; PHF13, GST-tagged): 0.6119
